Laboratory results from publication PMC9272661 (Antiviral Research, 2022).

Columns and labels:
SARS-CoV-2 3CLpro [1] = target: T1, SARS-CoV-2 3CLpro (Severe acute respiratory syndrome coronavirus 2, UniProt P0DTD1); assay: Inhibition of cleavage of TriPro substrate protein; type: biochemical; details: 0.8 μM 3CLpro, 1 h preincubation, SDS-PAGE
SARS-CoV-2 3CLpro [2] = target: T1, SARS-CoV-2 3CLpro; assay: Enzyme kinetics, Lineweaver-Burk plots; type: biochemical; details: 200 nM 3CLpro, inhibitor 5 μM or 10 μM
SARS-CoV-2 3CLpro [3] = target: T1, SARS-CoV-2 3CLpro; assay: Surface plasmon resonance binding to immobilized 3CLpro; details: 0.164-100 μM, 25 °C, n = 3
SARS-CoV-2 3CLpro [4] = target: T1, SARS-CoV-2 3CLpro; assay: FRET-based enzymatic assay of 3CLpro; type: biochemical; details: at 50 μM concentration

Structure (SMILES)	Inhibition of cleavage of TriPro substrate protein (SARS-CoV-2 3CLpro [1])	Inhibition Type (SARS-CoV-2 3CLpro [2])	KD (SPR, steady-state affinity model) (SARS-CoV-2 3CLpro [3])	Inhibitory activity against SARS-CoV-2 3CLpro (SARS-CoV-2 3CLpro [4])
Cl.NCCOc1ccc(Cl)cc1C(=O)NCC(=O)Nc1ccc([N+](=O)[O-])cc1Cl [JMX0286, 2-(2-Aminoethoxy)-5-chloro-N-(2-((2-chloro-4-nitrophenyl)amino)-2-oxoethyl)benzamide hydrochloride]	inhibited the cleavage of the TriPro substrate protein in a dose dependent manner	Non-competitive		
CC(C)(C)OC(=O)NCCOc1ccc(Cl)cc1C(=O)NCC(=O)Nc1ccc([N+](=O)[O-])cc1Cl [JMX0301, Tert-Butyl (2-(4-chloro-2-((2-((2-chloro-4-nitrophenyl)amino)-2-oxoethyl)carbamoyl)phenoxy)ethyl)carbamate]	inhibited the cleavage of the TriPro substrate protein in a dose dependent manner	Non-competitive	did not show binding	
O=C(Nc1ccc([N+](=O)[O-])cc1Cl)c1cc(Cl)ccc1O [niclosamide]				does not inhibit
